Where “and” joins values, the source holds several entries; their conditions need not be identical. Identical values can stand only once.
Legend:
intestinal lactase [1] = target: T1, intestinal lactase (Homo sapiens, UniProt P09848); assay: 4-GX test in 4-hour urine, patients with symptoms suggestive of lactose intolerance; assay type: in vivo
T1 construct: after its oral administration it is hydrolysed by the intestinal mucosa enzyme; from tissue; host or cells: small-intestinal mucosa (enterocyte brush border) of living human volunteers and patients, in vivo
Description: The diagnostic tests to which these patients were subjected were: • Intestinal biopsy: determining intestinal lactase activity therein. • Hydrogen breath test after the oral administration to patients of 50 g of lactose. While this test was being carried out, several capillary-blood glucose test (Glycemia tests) were carried out, calculating the highest increase observed in the blood glucose concentration compared to basal glucose level before starting the test. • 4-GX test in total urine at 0-4 and 0-5 hours, which was orally administered to patients 0.5 g of this product (or 0.45 g in a 4-GX sample including 10 wt % water), collecting the total urine accumulated over 0-4 h and 0-5 h following the administration of 4-GX and determining the amount of excreted xylose in both volumes of urine. • 4-GX test in blood which was orally administered to patients 3 g of this product (or 2.7 g in a 4-GX sample including 10 wt % water) to determine the concentration of plasma xylose in a blood sample 90 minutes after ingestion of the product. The concentration obtained was compared to a basal blood sample extracted before ingestion of 4-GX.
The 4-GX was orally administered in a single dose dissolved in 100 ml of water.
From here on, the optimum dose of 0.5 g of 4-GX (or 0.45 g in a 4-GX sample including 10 wt % water) was used in the 4-GX urine test for the diagnosis of intestinal lactase deficiency by the non-invasive method described in the present invention. This dose was dissolved in 100 ml water, and following the test protocol, 2 samples of urine excreted during the 5 hours following the administration of the drug were taken, in two interval groups: at 4 hours following administration of 4-GX and at 5 hours following administration of 4-GX.
From the data obtained from the various urine tests for intestinal lactase deficiency following oral ingestion of 4-GX described in the present invention, a descriptive statistical analysis was performed of the amount of xylose excreted in the urine up to 4 hours and up to 5 hours following said administration. The same was done with the blodd test for intestinal lactase activity following oral ingestion of 4-GX, where descriptive statistical analysis was performed on the amount of xylose present in the plasma of subjects at 90 minutes following administration of 4-GX. The net increase in the plasma xylose concentration compared to basal values was also calculated.
To obtain the statistical parameters of lactase determination using the various 4-GX tests described in the present invention and later to compare them with the results obtained from the intestinal biopsy test, hydrogen in exhaled air test and capillary-blood glucose test, the normal limits of the measurement of the total amount of xylose excreted in 4-hour and 5-hour urine and the concentration of blood xylose after 90 minutes following ingestion of 4-GX described in Table 5 were used. The normal limits for the other tests were those used in common clinical practice for the diagnosis of lactose intolerance (Arola, H. (1994) Diagnosis of hypolactasia and lactose malabsorption. Scand. J. Gastroenterol. […] (Suppl), 26-35), which are:
For the measurement of lactase by intestinal biopsy, the lower normal limit is established at 10 units/g protein, with values less than this being considered positive.

intestinal lactase [2] = target: T1, intestinal lactase; assay: Urinary excretion of xylose after single oral doses of 4-GX in healthy volunteers; assay type: in vivo
Description: Two groups of subjects were selected. […] Firstly, the lowest suitable oral dose of 4-GX administered to healthy volunteers was determined that enabled reliable detection (in terms of accuracy and reproducibility) of xylose levels in urine and blood via the analytical method to be used. In addition, the tolerance of these subjects to the various doses of 4-GX used in the test and the pharmacokinetics for each dose administered were analysed, both in urine and blood. The doses of 4-GX used were: 0.125 g, 0.250 g, 0.5 g, 1 g, 3 g and 6 g in addition to placebo in 12 healthy volunteers with washout period between doses of between three and seven days. It should be appreciated that the 4-GX doses can include small quantities of water which remain subsequent to the drying process of the 4-GX product. For example, the 4-GX product can contain about 8 wt % to about 12 wt %, most likely about 10 wt % water, based on the total weight of the product. […] In each study period, an ascending dose of 4-GX was administered and the serum and urine concentrations of xylose were measured at various times up to 8 hours following the administration of the drug.
The main measured variable was the quantity of xylose in urine collected following oral administration of 4-GX at the following times: basal, 0-1 h, 1-2 h, 2-3 h, 3-4 h, 4-5 h, 5-6 h, 6-7 h and 7-8 h. […]

[3] = 0.5 g 4-GX, 0-4 h urine, cut-off 27.58 mg, 205 patients
[4] = 0.5 g 4-GX, 4-hour urine, lactase in intestinal biopsy as gold standard
[5] = 4-hour urine, after correcting biopsy diagnosis
[6] = 4-hour urine, after correction of the biopsy diagnostic result (five discrepancies)
[7] = 4-hour urine, after correction of the biopsy diagnostic result (four discrepancies)
[8] = 4-hour urine, biopsy as gold standard
[9] = 4-hour urine, final criteria of Table 9

T1 sequence (P09848 869-1927): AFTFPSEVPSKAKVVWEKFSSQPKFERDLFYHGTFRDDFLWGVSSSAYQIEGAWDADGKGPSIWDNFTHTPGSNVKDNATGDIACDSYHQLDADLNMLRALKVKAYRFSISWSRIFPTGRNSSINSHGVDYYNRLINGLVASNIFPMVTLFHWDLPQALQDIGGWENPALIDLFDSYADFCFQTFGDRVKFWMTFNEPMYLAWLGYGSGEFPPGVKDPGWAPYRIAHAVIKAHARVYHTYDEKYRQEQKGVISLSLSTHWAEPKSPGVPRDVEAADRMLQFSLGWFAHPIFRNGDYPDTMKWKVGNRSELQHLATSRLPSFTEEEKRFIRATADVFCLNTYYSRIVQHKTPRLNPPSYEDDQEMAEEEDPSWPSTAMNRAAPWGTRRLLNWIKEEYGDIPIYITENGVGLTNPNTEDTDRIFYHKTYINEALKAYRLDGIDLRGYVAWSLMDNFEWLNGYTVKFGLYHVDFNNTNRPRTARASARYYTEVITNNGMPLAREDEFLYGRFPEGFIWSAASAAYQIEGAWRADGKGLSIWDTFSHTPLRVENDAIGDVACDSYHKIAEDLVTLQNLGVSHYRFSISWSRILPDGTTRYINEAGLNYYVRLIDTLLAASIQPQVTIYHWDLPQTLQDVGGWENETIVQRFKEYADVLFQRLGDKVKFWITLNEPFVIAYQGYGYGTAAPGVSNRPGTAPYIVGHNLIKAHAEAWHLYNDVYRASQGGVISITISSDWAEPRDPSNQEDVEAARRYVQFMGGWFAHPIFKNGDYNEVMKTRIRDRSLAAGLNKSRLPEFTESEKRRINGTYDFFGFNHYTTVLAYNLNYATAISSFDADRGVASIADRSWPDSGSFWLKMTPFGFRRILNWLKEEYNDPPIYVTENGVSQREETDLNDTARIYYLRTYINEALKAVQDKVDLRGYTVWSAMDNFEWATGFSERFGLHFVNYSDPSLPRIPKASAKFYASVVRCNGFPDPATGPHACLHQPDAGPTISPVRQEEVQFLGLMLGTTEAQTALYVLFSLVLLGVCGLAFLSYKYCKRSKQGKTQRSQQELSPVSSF

lowest dose of 4-GX for which excretion of xylose in urine can be distinguished from placebo (intestinal lactase [2]): 0.5 g
Compound: O=C[C@H](O)[C@@H](O)[C@@H](CO)O[C@@H]1O[C@H](CO)[C@H](O)[C@H](O)[C@H]1O [4-GX, 4-O-β-galactopyranosyl-D-xylose]
No. Negative (intestinal lactase [1]; [3]): 100
No. Positive (patients presenting intestinal lactase deficiency) (intestinal lactase [1]; [3]): 105
Percentage of patients negative (intestinal lactase [1]; [3]): 49%
Percentage of patients positive (intestinal lactase [1]; [3]): 51.2% and 51%
Negative predictive value (intestinal lactase [1]; [4]): 90%
Positive predictive value (intestinal lactase [1]; [4]): 93.3% and 93.33%
Sensitivity (intestinal lactase [1]; [4]): 90.7% and 90.74%
Specificity (intestinal lactase [1]; [4]): 92.8% and 92.78%
sensitivity calculated using the ROC curves (intestinal lactase [1]; 4-hour urine samples): 90.7%
specificity calculated using the ROC curves (intestinal lactase [1]; 4-hour urine samples): 93.8%
range of recalculated sensitivity, specificity, positive and negative predictive values (intestinal lactase [1]; 4-hour urine test, after correcting biopsy diagnosis): 96.00-98.10
false negatives (intestinal lactase [1]; [5]): 3.74%
negative likelihood ratio (intestinal lactase [1]; [5]): 0.038
positive likelihood ratio (intestinal lactase [1]; [5]): 47.168
Negative predictive value (intestinal lactase [1]; [6]): 96.00%
Positive predictive value (intestinal lactase [1]; [6]): 98.10%
Sensitivity (intestinal lactase [1]; [6]): 96.26%
Specificity (intestinal lactase [1]; [6]): 97.96%
Negative predictive value (intestinal lactase [1]; [7]): 97.00%
Positive predictive value (intestinal lactase [1]; [7]): 99.05%
Sensitivity (intestinal lactase [1]; [7]): 97.20%
Specificity (intestinal lactase [1]; [7]): 98.98%
area under the ROC curve (intestinal lactase [1]; [8]): 0.9282
false negatives (intestinal lactase [1]; [8]): 9.3%
false positives (intestinal lactase [1]; [8]): 7.2%
concordant positive results, percentage (intestinal lactase [1]; [9]): 96.3%
final number of concordant positive results (intestinal lactase [1]; [9]): 103
negative results (concordant), percentage (intestinal lactase [1]; [9]): 98.0%
number of negative results (concordant) (intestinal lactase [1]; [9]): 96
